This is an account of results in patent publication US9822078B2, “Quinoline compounds” (Oxford University Innovation Limited, priority 2014, dated 2017).

Where only a bound is given, the exact number is not on record here.

The target of experiment [1] is T1, Islet amyloid precursor polypeptide, IAPP (Homo sapiens, UniProt P10997).
T1 construct: Purified synthetic peptides corresponding to IAPP (Bachem, Weil am Rhein, Germany); purchased Bachem, Weil am Rhein, Germany; host or cells: synthetic peptide
T1 sequence (P10997 34-70 limits assumed): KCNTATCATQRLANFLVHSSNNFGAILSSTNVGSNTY
The experiment is described as follows: In vitro assembly assay (thioflavin T fluorescence, with or without air-water interface), IAPP. The format is biochemical. To be noted: ratio of IC50 with air-water interface (+AWI) to IC50 without (−AWI), IAPP at 4 μM; for Ratio IAPP IC50 (μm) +AWI/−AWI elongation: elongation rate. The procedure:
(§1) The assay is based upon the altered fluorescent properties of the dye thioflavin T when it is intercalated into stacked beta-strand structures, which includes amyloid fibrils. The assay is carried out in multi-well plates in which the air-water interface (AWI) can be independently occluded at any time in the assay by the insertion in any well of a hydrophilic poly-methyl-methacrylate cylinder (Perspex). The cylinder consists of a rod of 6.6 mm in diameter and 6 mm in height with a hemispherical tip. This provides a close fit for the circular cross-section of the well, minimising residual air-water interface, and the hemispherical contour on the inserted end serves to ensure that no air bubbles are trapped on insertion.
(§2) The assay has a final volume of 100 μl and contains a buffered isotonic solution (Phosphate Buffered Saline pH 7.4), 32 μM Thioflavin T (ThT), an amyloidogenic precursor peptide (Islet amyloid precursor polypeptide, IAPP at 4 μM, or Abeta1-40 at 12 μM, final concentration) and added compounds at indicated concentrations (dissolved in dimethyl sulphoxide, DMSO) or DMSO alone. Purified synthetic peptides corresponding to IAPP (Bachem, Weil am Rhein, Germany) and Aβ1-40 (EZBiolab, Carmel, Ind., USA) were dissolved in DMSO, sonicated, and centrifuged for 1 hour at 15,000 g and 4° C. before use (to remove any pre-aggregated species).
(§3) The ThT fluorescence signal was measured at 1 minute intervals (excitation 450 nm, emission 480 nm) in a 96-well plate (black wall, clear bottom; Greiner Bio-One, Stonehouse, Gloucestershire, UK) without shaking at 37° C. on a Polarstar plate reader (BMG Labtech, Aylesbury, Buckinghamshire, UK).
(§4) Any compound or physical device (e.g., Perspex cylinder) used was introduced at the same time in test (containing IAPP) and control wells (buffer and ThT without IAPP). Control values (with or without compounds or physical device) were subtracted from test values. At least 3 independent assays, with every assay done in duplicate wells, were performed and analyzed with the 2-sample t test.
(§5) A more detailed description of the IAPP and Aβ thioflavin/cylinder assay is given in Jean et al (2012) Biophysical Journal 102 1154-11.
(§6) The kinetics parameters were calculated from the ThT data as follows; the elongation rate was calculated from the slope at the inflection point of the sigmoidal curve; the plateau height was calculated by averaging the highest curve values (minimum of five values) attained at the end of the experiment; and the lag phase was calculated from the intercept on the time axis of the line formed tangent to the inflection point. At least three independent assays were performed, with every assay performed in duplicate wells. Statistical analysis was performed with the two-sample t-test. Details of the method of calculation of lag phase, elongation rate and plateau height are described in Trigg et al (2013) Biochemical Journal 456 67-80.

The target of a further experiment is T2, Abeta1-40 (Homo sapiens, UniProt P05067).
T2 construct: Abeta1-40 at 12 μM, final concentration; purchased EZBiolab, Carmel, Ind., USA; host or cells: synthetic peptide
The experiment is described as follows: In vitro assembly assay (thioflavin T fluorescence), screen against Amyloid-beta (Aβ) peptides. To be noted: Abeta1-40 at 12 μM. The format is biochemical. The protocol: as §1, §2, §3, §4, §5, §6

For the next experiment, the system named is C. elegans. The experiment can be described thus: in vivo C. elegans model.

T2 sequence (P05067 672-711 limits assumed): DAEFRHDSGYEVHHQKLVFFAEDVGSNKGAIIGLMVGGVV

For `Cc1cc(C)c2ccc(/C=C/c3ccc(Br)o3)nc2c1O` [Compound 226], in experiment [1], the “Ratio IAPP IC50 (μm) +AWI/−AWI elongation” value is listed as 3 and the “Ratio IAPP IC50 (μm) +AWI/−AWI Lag phase” value is 1.
The matching figures for `Cc1cc(C)c2ccc(/C=C/c3ccc(O)c(O)c3)nc2c1O` [Compound 221]: 16 and 32.
For the compound `Cc1cc(C)c2ccc(/C=C/c3ccc4c(c3)OCO4)nc2c1O` [Compound 241], at Abeta1-40, the “Active against Aβ” value was “No”. Further, in the experiment with C. elegans, the “activity in an in vivo C. elegans model” value is recorded as “showed activity”. In experiment [1], the “Ratio IAPP IC50 (μm) +AWI/−AWI elongation” value worked out at 11 and the “Ratio IAPP IC50 (μm) +AWI/−AWI Lag phase” value worked out at 3.
For the compound `Cc1cc(C)c2ccc(/C=C/c3ccc(N4CCOCC4)nc3)nc2c1O` [Compound 323], in experiment [1], the “Ratio IAPP IC50 (μm) +AWI/−AWI elongation” value is 2.5 and the “Ratio IAPP IC50 (μm) +AWI/−AWI Lag phase” value turned out to be 11.
For the compound `Cc1cc(C)c2ccc(/C=C/c3cccnc3N3CCNCC3)nc2c1O` [Compound 325], in experiment [1], the “Ratio IAPP IC50 (μm) +AWI/−AWI elongation” value worked out at 5 and the “Ratio IAPP IC50 (μm) +AWI/−AWI Lag phase” value was 1.
`Cc1cc(C)c2ccc(/C=C/c3ccccc3C#N)nc2c1O` [Compound 229]: on Abeta1-40, the “Active against Aβ” value was “✓ (rate)”. Besides, in experiment [1], the “Ratio IAPP IC50 (μm) +AWI/−AWI elongation” value is reported as 32 and the “Ratio IAPP IC50 (μm) +AWI/−AWI Lag phase” value is 32.
For the compound `Cc1cc(C)c2ccc(/C=C/c3cc(C(=O)O)ccc3O)nc2c1O` [Compound 236], on Abeta1-40, the “Active against Aβ” value was “✓”. Also, the “activity in an in vivo C. elegans model” value with C. elegans was “showed activity”. In experiment [1], the “Ratio IAPP IC50 (μm) +AWI/−AWI elongation” value was found to be 11 and the “Ratio IAPP IC50 (μm) +AWI/−AWI Lag phase” value is 8.
Consider `Cc1cc(C)c2ccc(/C=C/C3CCCCC3)nc2c1O` [Compound 245], for which the “Active against Aβ” value on Abeta1-40 was “✓”. Besides, in experiment [1], the “Ratio IAPP IC50 (μm) +AWI/−AWI elongation” value was 32 and the “Ratio IAPP IC50 (μm) +AWI/−AWI Lag phase” value stood at 32.
In the case of `Cc1cc(C)c2ccc(/C=C/c3ccc(OC(F)(F)F)cc3)nc2c1O` [Compound 239], in experiment [1], the “Ratio IAPP IC50 (μm) +AWI/−AWI elongation” value is recorded as 32 and the “Ratio IAPP IC50 (μm) +AWI/−AWI Lag phase” value was found to be 11.
For the compound `Cc1cc(C)c2ccc(/C=C/c3ccccc3[N+](=O)[O-])nc2c1O` [Compound 222], in experiment [1], the “Ratio IAPP IC50 (μm) +AWI/−AWI elongation” value came out at 3 and the “Ratio IAPP IC50 (μm) +AWI/−AWI Lag phase” value was determined as 11.
As for `Cc1cc(C)c2ccc(/C=C/c3ccccc3O)nc2c1O` [Compound 214], the “Active against Aβ” value on Abeta1-40 is “✓ (rate)”. In the experiment on C. elegans, the “activity in an in vivo C. elegans model” value is listed as “showed activity”. In experiment [1], the “Ratio IAPP IC50 (μm) +AWI/−AWI elongation” value is 3 and the “Ratio IAPP IC50 (μm) +AWI/−AWI Lag phase” value was 32.
`Cc1cc(C)c2ccc(/C=C/c3cccnc3C)nc2c1O` [Compound 326]: in experiment [1], the “Ratio IAPP IC50 (μm) +AWI/−AWI elongation” value is 1 and the “Ratio IAPP IC50 (μm) +AWI/−AWI Lag phase” value came out at 1.
As to `Cc1cc(C)c2ccc(/C=C/c3cccc(C#N)c3)nc2c1O` [Compound 251], the “Active against Aβ” value at Abeta1-40 is “✓”. Further, the “activity in an in vivo C. elegans model” value with C. elegans was “showed activity”. In addition, in experiment [1], the “Ratio IAPP IC50 (μm) +AWI/−AWI elongation” value is 21 and the “Ratio IAPP IC50 (μm) +AWI/−AWI Lag phase” value was found to be 21.
Turning to `Cc1cc(C)c2ccc(/C=C/c3ccc(Br)cc3)nc2c1O` [Compound 252], in experiment [1], the “Ratio IAPP IC50 (μm) +AWI/−AWI elongation” value was found to be 3 and the “Ratio IAPP IC50 (μm) +AWI/−AWI Lag phase” value is 1.
Take `Cc1cc(C)c2ccc(/C=C/c3cccc([N+](=O)[O-])c3)nc2c1O` [Compound 234]: in experiment [1], the “Ratio IAPP IC50 (μm) +AWI/−AWI elongation” value turned out to be 21 and the “Ratio IAPP IC50 (μm) +AWI/−AWI Lag phase” value stood at 21.
On to `Cc1ccc(/C=C/c2ccc3c(C)cc(C)c(O)c3n2)cn1` [Compound 322], for which, in experiment [1], the “Ratio IAPP IC50 (μm) +AWI/−AWI elongation” value is recorded as 1 and the “Ratio IAPP IC50 (μm) +AWI/−AWI Lag phase” value was 4.
With `Cc1cc(C)c2ccc(/C=C/c3ccccc3N)nc2c1O` [Compound 131], in experiment [1], the “Ratio IAPP IC50 (μm) +AWI/−AWI elongation” value is 4 and the “Ratio IAPP IC50 (μm) +AWI/−AWI Lag phase” value is reported as 8.
For `COc1ccc(/C=C/c2ccc3c(C)cc(C)c(O)c3n2)cn1` [Compound 312] the same measures were 1 and 2.
As to `Cc1cc(C)c2ccc(/C=C/c3cccc(O)c3)nc2c1O` [Compound 227], at Abeta1-40, the “Active against Aβ” value is “✓ (rate)”. In addition, in experiment [1], the “Ratio IAPP IC50 (μm) +AWI/−AWI elongation” value is 31 and the “Ratio IAPP IC50 (μm) +AWI/−AWI Lag phase” value stood at 32.
Consider `Cc1cc(C)c2ccc(/C=C/c3cccnc3)nc2c1O` [Compound 249], for which the “Active against Aβ” value at Abeta1-40 is listed as “✓”. The “activity in an in vivo C. elegans model” value in the experiment with C. elegans is “showed activity”. In experiment [1], the “Ratio IAPP IC50 (μm) +AWI/−AWI elongation” value is recorded as 12 and the “Ratio IAPP IC50 (μm) +AWI/−AWI Lag phase” value is recorded as 32.
As to `Cc1cc(C)c2ccc(/C=C/c3ccc(N4CCNCC4)nc3)nc2c1O` [Compound 324], in experiment [1], the “Ratio IAPP IC50 (μm) +AWI/−AWI elongation” value was 4 and the “Ratio IAPP IC50 (μm) +AWI/−AWI Lag phase” value was found to be 21.
Turning to `Cc1cc(C)c2ccc(/C=C/c3cccnc3Cl)nc2c1O` [Compound 311], in experiment [1], the “Ratio IAPP IC50 (μm) +AWI/−AWI elongation” value is recorded as 1 and the “Ratio IAPP IC50 (μm) +AWI/−AWI Lag phase” value was determined as 4.
`Cc1cc(C)c2ccc(/C=C/c3ccccc3)nc2c1O` [Compound 225]: in experiment [1], the “Ratio IAPP IC50 (μm) +AWI/−AWI elongation” value stood at 4 and the “Ratio IAPP IC50 (μm) +AWI/−AWI Lag phase” value was 3.
For the compound `COc1cc(/C=C/c2ccc3c(C)cc(C)c(O)c3n2)ccc1O` [Compound 238], in experiment [1], the “Ratio IAPP IC50 (μm) +AWI/−AWI elongation” value worked out at 4 and the “Ratio IAPP IC50 (μm) +AWI/−AWI Lag phase” value came to 32.
The matching figures for `Cc1cc(C)c2ccc(/C=C/c3cccnc3N)nc2c1O` [Compound 321]: above 1 and 3.
